The structures appear in SMILES notation. Read-outs that look alike come from different tables or passages of the source. Bounds are passed on as bounds.

Here are results for 13 compounds from patent US20230107216A1, “PANTETHEINE DERIVATIVES AND USES THEREOF” (Comet Therapeutics, Inc., priority 2018, published 2023).

For assay [1], the system named is Very long-chain acyl-CoA dehydrogenase (VLCAD) primary fibroblasts GM17475. In words: NADP+/NADPH (NADP/NADPH-Glo), VLCAD fibroblasts GM17475. Type of assay: cell-based. The settings on record: Homo sapiens, Fibroblast, 24h, read-out: Increase in Total NADP+ + NADPH. The procedure: Primary adherent fibroblasts were cultured in minimum essential medium (MEM) (Gibco, 25030081) supplemented with 2 mM L-Glutamine (Gibco, 25030081), 15% fetal bovine serum (FBS) (Gibco, 26400044) and 1% penicillin/streptomycin (Gibco, 5140122) at 37° C. and 5% CO2. Cells were collected for either passaging or experiment at ˜70-80% confluence. Cells were obtained by trypsinization and seeded in cell culture microplates either white plate (Thermo Fisher Scientific, 152028) for luminescent measurement or black plate (Thermo Fisher Scientific, 165305) for fluorescent based read out for different assays listed below. Cells were obtained by trypsinization and […] were seeded and allowed to adhere for 16-18 hours to have confluency around 70-80% in the cell well with culture media. After 24 hours prior to measurements (37° C., 5% CO2) media was changed to Dulbecco's Modified Eagle Medium (DMEM, Agilent Seahorse cat #103575-100) with the appropriate supplements as stated below.
Primary fibroblasts assayed were Propionic Acidemia (PA) (GM03590 Coriell Institute for Medical Research, Tsi 6337 Trans-Hit Bio), Methylmalonic Acidemia (MMA) (Tsi 5224 Trans-Hit Bio), Subnormal activation of pyruvate dehydrogenase complex (PDH) (GM01503 Coriell Institute for Medical Research), Very long-chain acyl-CoA dehydrogenase (VLCAD) (GM17475), Leigh Syndrome (LS) (GM03672, GM13411 Coriell Institute for Medical Research), Pyruvate Carboxylase Deficiency (PC) (GM00444 Coriell Institute for Medical Research). 10 μM of Compounds were added for 2 hours in PA, MMA lines and for 24h for the other fibroblast lines.
Assay was performed according to manufacturer instructions (NADP+/NADPH-Glo Assay Promega, G9082). Assay required a plate for total measurement of NADP+/NADPH and a plate for individual measurement of NADP+ or NADPH. For every assay a 12-point standard curve is prepared ranging from 400 nM to 0.625 nM. Media is removed and replaced with 50 μl of PBS for both assays.
For individual NADP+/NADPH measurements, 50 μl of 1% DTAB (Sigma, D5047) (cell lysis reagent) in 0.2N NaOH was added to the plates and 100 μl of lysate was split into two plates with 50 μl each from which ratio of NADP/NADPH can be calculated. 25 μl of 0.4N HCl were added to the NADP+ plates and both NADP+ and NADPH plates were heated at 60° C. for 15 minutes. The acid and heat treatment destroyed NADPH allowing individual NADP+ measurements while heating in basic conditions destroys NADP+ allowing individual NADPH measurement. After 15 minutes plates were allowed to come to room temperature and Trizma base (Sigma, T1699) was added to the NADP+ plates to neutralize the acid and HCl Trizma hydrochloride (Sigma, T2694) was added to the NADPH plates. The NADNADPH glo reagent was prepared by adding 125 μl of NAD cycling substrate, 125 μl of reductase, 125 μl of reductase substrate, 125 μl NAD cycling enzyme to a total of the 25 ml of NAD GLO reagent. 1:1 ratio of total volume of reagent was added to the individual NADP+, NADPH measurements (total 100 μl) and 50 μl were added for the total NAD/NADPH measurements. Luminescence was measured for 30-60 minutes within the linear range.
A total dead cell count was performed as described in Example 817 and only alive cells were used for analysis.

Assay [2] deals with primary fibroblasts GM00649, GM06225, GM00612, GM00444, GM03672. In words: MMP, ROS and ATP multiplex (ArrayScan). The assay is classed as cell-based. The settings on record: Homo sapiens, Fibroblast, procedure Example 838, read-out: Decreased ROS by at least 10%; for inhibition at 50 µM: Leigh GM03672, 50 μM (table line r25). The procedure: Cell culture and treatments. Primary adherent fibroblasts were cultured in minimum essential medium (MEM) (Gibco, 25030081) supplemented with 2 mM L-Glutamine (Gibco, 25030081), 15% fetal bovine serum (FBS) (Gibco, 26400044) and 1% penicillin/streptomycin (Gibco, 5140122) at 37° C. and 5% CO2. Cells were collected for either passaging or experiment at ˜70-80% confluence. Cells were obtained by trypsinization and seeded at 10000 cells/well in cell culture microplates (Seahorse Bioscience, 101085-004) and allowed to adhere for 16 hours in culture media. After media was refreshed with DMEM (Agilent Seahorse 103575-100) supplemented with 1 mM glucose and 10% FBS (Gibco, 26400044). At the end of the incubation period, the cells were loaded with the relevant dye/antibody for each cell health marker. The assay provided simultaneous measurement of cell health parameters including cell count, ROS formation (DHE), mitochondrial membrane potential (MitoTracker®) and cellular ATP content (CellTiter-Glo®, Promega). The plates were then scanned using an automated fluorescent cellular imager, ArrayScan® (Thermo Scientific Cellomics). Assay conditions were optimized by one skilled in the art.
Primary cells used in this example were obtained from Coriell Institute for Medical Research and consisted of GM00649, MSUD (Maple Syrup Urine Disease) Tyle IA; GM06225, Kearns-Sayre Syndrome; GM00612, MSUD (Maple Syrup Urine Disease) Tyle II GM00444, Pyruvate Carboxylase Deficiency and GM03672, Leigh Syndrome.

Setting [3] is: VLCAD GM17475 P10, assay condition B (1 mM glucose, 2 mM L-glutamine, 1 mM pyruvate, 10% FBS).
The mark [4] stands for this setting: VLCAD GM17475 P10, assay condition A (10 mM glucose, 2 mM L-glutamine, 1 mM pyruvate, 10% FBS).

`CC(O)CC(O)CC(=O)SCCNC(=O)CCNC(=O)[C@H](O)C(C)(C)CO` (stereo partly drawn) [Compound 400]: the activation at 10 µM in assay [1] (setting [3]) was at least 10%.

As for `CC(=O)SCCNC(=O)CCNC(=O)[C@H](O)C(C)(C)COC(=O)CCC(=O)O` [Compound 1242, (R)-12-hydroxy-13,13-dimethyl-2,7,11,16-tetraoxo-15-oxa-3-thia-6,10-diazanonadecan-19-oic acid], the activation at 10 µM in assay [1] (setting [4]) is at least 10%.

In the case of `CC[C@@H](O)CC(=O)SCCNC(=O)CCNC(=O)[C@H](O)C(C)(C)CO` [Compound 1245, (2R)-2,4-dihydroxy-N-{2-[(2-{[(3R)-3-hydroxypentanoyl]sulfanyl}ethyl)carbamoyl]ethyl}-3,3-dimethylbutanamide], in assay [1] (setting [4]), the activation at 10 µM is at least 10%.

As for `CCC(=O)CC(=O)SCCNC(=O)CCNC(=O)[C@H](O)C(C)(C)CO` [Compound 382, (2R)-2,4-dihydroxy-3,3-dimethyl-N-[2-([2-[(3-oxopentanoyl)sulfanyl]ethyl]carbamoyl)ethyl]butanamide], in assay [1] (setting [4]), the activation at 10 µM was at least 10%. Besides, the inhibition at 50 µM in assay [2] is at least 10%.

In the case of `C[C@H](O)CC(=O)CC(=O)SCCNC(=O)CCNC(=O)[C@H](O)C(C)(C)CO` [Compound 1306, (2R)-2,4-dihydroxy-N-[2-[(2-[[(5S)-5-hydroxy-3-oxohexanoyl]sulfanyl]ethyl)carbamoyl]ethyl]-3,3-dimethylbutanamide], in assay [2], the inhibition at 50 µM was at least 10%.

As for `CC(O)C(C(=O)SCCNC(=O)CCNC(=O)[C@H](O)C(C)(C)CO)C(C)O` (stereo partly drawn) [Compound 1285, (2R)-2,4-dihydroxy-N-[2-[(2-[[3-hydroxy-2-(1-hydroxyethyl)butanoyl]sulfanyl]ethyl)carbamoyl]ethyl]-3,3-dimethylbutanamide], the activation at 10 µM in assay [1] (setting [4]) was at least 10%.

As for `C[C@@H](O)CC(=O)CC(=O)SCCNC(=O)CCNC(=O)[C@H](O)C(C)(C)CO` [Compound 42, (2R)-2,4-dihydroxy-N-[2-[(2-[[(5R)-5-hydroxy-3-oxohexanoyl]sulfanyl]ethyl)carbamoyl]ethyl]-3,3-dimethylbutanamide], the activation at 10 µM in assay [1] (setting [4]) was at least 10%.

For the compound `COC(=O)CC(C(C)=O)C(=O)SCCNC(=O)CCNC(=O)[C@H](O)C(C)(C)CO` (stereo partly drawn) [Compound 410], in assay [1] (setting [4]), the activation at 10 µM is at least 10%. Besides, the inhibition at 50 µM in assay [2] is at least 10%.

For `CC(O)CC(O)CC(O)CC(=O)SCCNC(=O)CCNC(=O)[C@H](O)C(C)(C)CO` (stereo partly drawn) [Compound 401], the activation at 10 µM in assay [1] (setting [3]) is at least 10%.

Turning to `CC(=O)OCC(C)(C)[C@@H](OC(C)=O)C(=O)NCCC(=O)NCCSC(C)=O` [Compound 1264, (1R)-3-(acetyloxy)-1-[(2-[[2-(acetylsulfanyl)ethyl]carbamoyl]ethyl)carbamoyl]-2,2-dimethylpropyl acetate], in assay [1] (setting [4]), the activation at 10 µM is at least 10%.

In the case of `CC(C)(CO)[C@@H](O)C(=O)NCCC(=O)NCCSC(=O)CCCO` [Compound 1304, (2R)-2,4-dihydroxy-N-[2-([2-[(4-hydroxybutanoyl)sulfanyl]ethyl]carbamoyl)ethyl]-3,3-dimethylbutanamide], the inhibition at 50 µM in assay [2] is at least 10%.

As for `CC(=O)OCC(C)(C)[C@@H](O)C(=O)NCCC(=O)NCCSC(=O)CC(=O)CCC(=O)O` [Compound 140, 6-[(2-[3-[(2R)-4-(acetyloxy)-2-hydroxy-3,3-dimethylbutanamido]propanamido]ethyl)sulfanyl]-4,6-dioxohexanoic acid], the activation at 10 µM in assay [1] (setting [4]) was at least 10%. Besides, the inhibition at 50 µM in assay [2] was at least 10%.

In the case of `CC(C)(CO)[C@@H](O)C(=O)NCCC(=O)NCCSC(=O)CC(=O)CCC(=O)O` [Compound 2, 6-[(2-[3-[(2R)-2,4-dihydroxy-3,3-dimethylbutanamido]propanamido]ethyl)sulfanyl]-4,6-dioxohexanoic acid], the activation at 10 µM in assay [1] (setting [4]) is at least 10%. Further, the inhibition at 50 µM in assay [2] is at least 10%. In assay [2] (PC GM00444, 5 μM), the inhibition at 5 µM was at least 10%.
